Measurements published in patent US12649748B2, “Wee1 inhibitor and use thereof” (JIANGSU TASLY DIYI PHARMACEUTICAL CO., LTD., priority 2021, dated 2026).

Key:
[1] = Plasma protein binding (PPB), rat; type: in vitro ADME; details: 5 h dialysis, read-out: Plasma protein binding rate (%) Rat (converted)
Procedure: Sample preparation: The compound was dissolved in DMSO to a stock solution of 10 mM, then the compound was diluted with PBS to a secondary stock solution of 0.02 mM, and then the above 0.02 mM was diluted to 1 μM using blank plasma, which was the sample to be incubated.
Dialysis set-up preparation: 400 μL of blank PBS was first added to the white wells of the equilibrated dialysis plate and 200 μL of the configured plasma sample was added to the red wells, and the dialysis plate was sealed with a sealing film.
Recovery plate preparation: Two 96-well deep-well plates, labelled T0 and T5, were prepared and all plasma samples were added at n=2. 300 μL of acetonitrile (Verapamil-HCl, 4 ng/mL) was added directly to the TO plate, followed by 50 μL of blank PBS mix well for 5 min and left to stand in a 4° C. refrigerator until the end of the incubation.
Experimental Operation: The dialysis device and the T5 plate were incubated together for 5 h in a microplate thermostatic shaker (37° C., using 300 rpm or minimum speed). At the end of the incubation, 300 μL of acetonitrile (Verapamil-HCl, 4 ng/mL) was added and 50 μL of PBS solution was added. At the end of the dialysis incubation, a new 96-well deep well plate was taken. Add 50 μL of plasma well sample to the corresponding position of the 96-well plate, 300 μL of acetonitrile and 50 μL of blank PBS; take 50 μL of buffer well sample to the corresponding position of the 96-well plate, then add 300 μL of acetonitrile and 50 μL of blank plasma. Add 300 μL of acetonitrile (Verapamil-HCl, 4 ng/mL) to the plasma-containing wells of the T5 plate, and then 50 μL of PBS solution was added. Shake for 5 min to fully precipitate the proteins and centrifuge at 20,000 g for 10 min at 4° C. Add 200 μL of supernatant to 200 μL of pure water, mix well and perform LC-MS/MS analysis.
2. Data Processing and Parameter Calculation Plasma protein binding rate=[(Rpe−Rb)/Rpe]×100% Recovery=[(Rpe+Rb)/R5h]×100% Stability=(R5/R0)×100% where • Rpe=ratio of plasma-side testing sample peak area to internal standard • Rb=ratio of buffer side testing sample peak area to internal standard • R5=ratio of incubator stability sample peak area to internal standard • R0=ratio of refrigerator stability sample peak area to internal standard 3.

[2] = biological target: CYP2D6 (Homo sapiens, UniProt P10635); test: Inhibition of cytochrome P450, CYP2D6; type: in vitro ADME; details: CYP2D6 enzyme, pH 7.4, probe EOMCC, read-out: CYP inhibition/% 2D6; for inhibition at 30 min, 1 µM: compound concentration 1 μM; for inhibition at 30 min, 10 µM: compound concentration 10 μM
Procedure: (§1) Enzymatic experiments were performed to quantify the inhibition of CYP450 enzyme activity of each isoform of CYP450 by small molecule inhibitors through fluorescence generated by the oxidation of the substrate by cytochrome P450. […] The Solution B composition used for the experiment was: 40 U/mL G6PDH (Sigma-aldrich, Cat #G6378). The substrate mix was 0.05× Solution A, 0.01× Solution B, 50 mM Potassium Phosphate, 0.01 mM BOMCC/0.01 mM EOMCC/0.001 mM DBOMF. […] The data were analyzed and processed using GraphPad Prism 6 software to obtain IC50 values.

[3] = biological target: T1, Wee1 protein (Homo sapiens, UniProt P30291); test: Binding of compound to Wee1 protein and Tracer 178 by TR-FRET; details: inhibitory activity against Wee1 kinase, read-out: IC50 measured value
T1 construct: purchased Thermo Fisher PR7373A
Procedure: First, solutions of the compounds in different concentration gradients were prepared. […] DMSO was added as a positive control (maximal signal control) and a negative control (minimal signal control) and a final level of 0.25% DMSO was ensured in each reaction well.
WEE1 (Thermo Fisher, Cat #PR7373A) protein in buffer (50 mM Hepes pH 7.5, 10 mM MgCl2, 1 mM EGTA, 0.01% Brij-35) at 15 nM) in different concentrations of compound, and Tracer 178 (Invitrogen, PV5593) and MAb Anti-GST-Eu crypate (Cisbio, 61GSTKLA) were added to 384-well plates (Corning, cat #3574), centrifuged at 1000 rpm for 1 min and the 384-well plates were incubated in a constant temperature shaker for 60 min at 25° C. and 300 rpm. Tracer 178 and MAb Anti-GST-Eu crypate were prepared in buffer (50 mM HEPES pH 7.5, 10 mM MgCl2, 1 mM EGTA, 0.01% Brij-35) with a final reaction concentration of 50 nM for Tracer 178 and a final concentration of 2 nM for MAb Anti-GST-Eu crypate, where the negative control (minimal signal control) used an equal amount of buffer in place of the protein solution.
After incubation, readings were performed using BMG PHERAStar (excitation light at 337 nm and emission light at wavelength values of 620 nm and 665 nm to read the fluorescence signal values). […] The IC50 for inhibition of enzyme activity by the compounds was then calculated using GraphPad Prism 6 and fitted with a log (inhibitor) vs. response-Variable slope mode. The fitting equation was: Y=Bottom+(Top-Bottom)/(1+10^((Log IC50−X)*HillSlope)), where Y represents the percentage of residual enzyme activity known and X represents the known concentration of compound after the logarithm.

[4] = biological target: CYP3A4 (Homo sapiens, UniProt P08684); test: Inhibition of cytochrome P450, CYP3A4; type: in vitro ADME; details: CYP3A4 enzyme, pH 7.4, probe BOMCC, read-out: CYP inhibition/% 3A4; for inhibition at 30 min, 1 µM: compound concentration 1 μM; for inhibition at 30 min, 10 µM: compound concentration 10 μM
Procedure: as §1

Sequence of CYP2D6 (P10635 whole entry, canonical isoform): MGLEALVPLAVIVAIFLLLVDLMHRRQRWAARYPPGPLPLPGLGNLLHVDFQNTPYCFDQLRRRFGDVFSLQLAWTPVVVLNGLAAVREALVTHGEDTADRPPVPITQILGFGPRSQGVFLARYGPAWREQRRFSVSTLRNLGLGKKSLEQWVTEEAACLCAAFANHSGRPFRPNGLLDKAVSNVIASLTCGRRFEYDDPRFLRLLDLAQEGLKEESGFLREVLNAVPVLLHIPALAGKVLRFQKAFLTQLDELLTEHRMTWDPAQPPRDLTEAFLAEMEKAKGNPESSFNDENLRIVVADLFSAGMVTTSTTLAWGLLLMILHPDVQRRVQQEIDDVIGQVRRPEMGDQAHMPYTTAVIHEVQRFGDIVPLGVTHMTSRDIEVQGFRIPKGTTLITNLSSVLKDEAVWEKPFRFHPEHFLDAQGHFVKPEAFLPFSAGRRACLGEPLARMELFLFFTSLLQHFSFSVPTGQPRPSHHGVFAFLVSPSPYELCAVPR
T1 sequence (P30291 whole entry): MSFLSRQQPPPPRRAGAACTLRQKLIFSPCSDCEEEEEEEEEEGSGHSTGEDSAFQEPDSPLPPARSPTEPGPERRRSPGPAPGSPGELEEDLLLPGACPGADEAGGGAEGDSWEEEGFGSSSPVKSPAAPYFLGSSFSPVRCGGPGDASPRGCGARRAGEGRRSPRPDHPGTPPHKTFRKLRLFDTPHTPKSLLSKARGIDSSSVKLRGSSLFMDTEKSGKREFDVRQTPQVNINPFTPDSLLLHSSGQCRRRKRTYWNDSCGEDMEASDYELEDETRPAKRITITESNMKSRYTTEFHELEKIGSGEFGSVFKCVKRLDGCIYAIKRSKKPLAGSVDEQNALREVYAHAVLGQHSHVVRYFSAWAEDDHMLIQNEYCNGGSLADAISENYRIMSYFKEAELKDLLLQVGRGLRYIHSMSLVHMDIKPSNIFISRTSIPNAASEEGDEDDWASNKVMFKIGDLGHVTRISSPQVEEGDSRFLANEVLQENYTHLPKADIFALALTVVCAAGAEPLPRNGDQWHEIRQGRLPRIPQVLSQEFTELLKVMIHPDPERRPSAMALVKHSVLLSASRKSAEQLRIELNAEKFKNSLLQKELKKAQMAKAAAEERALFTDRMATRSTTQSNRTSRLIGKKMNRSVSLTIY
Sequence of CYP3A4 (P08684 whole entry): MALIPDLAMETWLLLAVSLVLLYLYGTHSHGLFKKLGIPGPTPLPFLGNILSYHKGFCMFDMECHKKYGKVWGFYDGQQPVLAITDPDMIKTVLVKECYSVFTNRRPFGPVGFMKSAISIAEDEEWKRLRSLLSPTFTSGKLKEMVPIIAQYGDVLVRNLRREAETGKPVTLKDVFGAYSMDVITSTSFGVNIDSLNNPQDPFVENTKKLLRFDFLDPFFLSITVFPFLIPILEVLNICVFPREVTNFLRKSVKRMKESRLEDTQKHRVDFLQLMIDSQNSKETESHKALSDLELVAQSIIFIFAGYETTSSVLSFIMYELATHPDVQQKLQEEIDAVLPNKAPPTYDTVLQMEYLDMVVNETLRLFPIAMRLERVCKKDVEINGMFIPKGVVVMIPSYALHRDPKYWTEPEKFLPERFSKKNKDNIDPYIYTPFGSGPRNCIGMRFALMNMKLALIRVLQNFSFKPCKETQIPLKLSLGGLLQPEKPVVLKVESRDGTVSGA

SMILES	fraction unbound at 5 h, 1 µM [1]	inhibition at 30 min, 1 µM [2] [%]	inhibition at 30 min, 10 µM [2] [%]	IC50 [3] [µM]	inhibition at 30 min, 1 µM [4] [%]	inhibition at 30 min, 10 µM [4] [%]
C=CCn1c(=O)c2cnc(Nc3ccc(N4CCN(C)CC4)cc3)nc2n1-c1cccc(C(C)(C)O)n1 [AZD-1775, reference compound]	0.374					
CN1CCN(c2ccc(Nc3ncc4cnn(-c5cccc(N=S(C)(C)=O)n5)c4n3)cc2)CC1 [Compound 1]	0.404	2.8	2	0.001 to 0.01	8.1	10.9
CN1CCN(c2ccc(Nc3ncc4cnn(-c5cccc(C(C)(C)O)n5)c4n3)cc2)CC1 [Compound 2]		0.3	3.1	0.01 to 0.1	0	-10.6

Further lines, results first:

fraction unbound at 5 h, 1 µM [1]	inhibition at 30 min, 1 µM [2] [%]	inhibition at 30 min, 10 µM [2] [%]	IC50 [3] [µM]	inhibition at 30 min, 1 µM [4] [%]	inhibition at 30 min, 10 µM [4] [%]	SMILES
	-7.6	-19.4	0.01 to 0.1	-26.1	-25.7	CS(C)(=O)=Nc1cccc(-n2ncc3cnc(Nc4ccc(N5CCOCC5)cc4)nc32)n1 [Compound 6]
0.246			0.001 to 0.01			Cc1cc(Nc2ncc3cnn(-c4cccc(N=S(C)(C)=O)n4)c3n2)ccc1N1CCC(N(C)C)CC1 [Compound 14]
0.179			0.001 to 0.01			Cc1cc(Nc2ncc3cnn(-c4cccc(N=S(C)(C)=O)n4)c3n2)ccc1N1CCN(C)CC1 [Compound 16]
